Where “and” joins values, the source holds several entries; their conditions need not be identical. Equal values may be shown once.
Legend:
[1] = pharmacokinetic experiment in male rats (oral and tail vein); assay type: in vivo, rat
Protocol: Methylcellulose was dissolved in physiological saline to prepare a solution containing methylcellulose at a concentration of 0.5 wt %, and then the previously prepared fexuprazan hydrochloride was added thereto to prepare a composition with Fexuprazan at a concentration of 1 mg/mL. The composition prepared above was orally administered to male rats at a dose of 2 mg/kg in a liquid volume of 2 mL/kg depending on the body weight of the individual, and then blood was collected using an orbital blood collection method at 0.25, 0.5, 1, 2, 4, 6, 8, and 24 hours, and centrifuged at 10,000 rpm for 5 minutes. Plasma was collected, analyzed by HPLC-MS/MS, and pharmacokinetic parameters were calculated.
Then, methylcellulose was dissolved in physiological saline to prepare a solution containing methylcellulose at a concentration of 0.5 wt,%, and then the previously prepared fexuprazan hydrochloride was added thereto to prepare a composition with fexuprazan at a concentration of 1 mg/mL. The composition was administered through the tail vein in male rats at a dose of 1 mg/kg in a liquid volume of 1 mL/kg depending on the body weight of the individual. Blood was collected by the same method as in oral administration at 0.083, 0.25, 0.5, 1, 2, 4, 6, 8, and 24 hours, and then analyzed.

[2] = 4-week repeated intravenous toxicity test, rat; assay type: in vivo
Protocol: The previously prepared fexuprazan hydrochloride was dissolved in a solution containing 30 wt. % of polyethylene glycol (Polyethylene Glycol 400) polymer in physiological saline, and the concentration was calculated based on fexuprazan weight so that it could be administered at a liquid volume of 5 mL/kg for rats and 2 mL/kg for beagle dogs to prepare each composition. Toxicity was evaluated by intravenously administering at doses of 0, 2.5, 5, and 10 mg/kg/day to rats and beagle dogs, respectively, once a day for 4 weeks.

[3] = single intravenous dose-escalation clinical trial, pharmacokinetics; assay type: in vivo; conditions: human, blood, healthy adults
Protocol: (§1) In order to confirm the safety/PK/PD of the compound of the present invention during intravenous administration, the clinical trial was designed with random assignment, double-blind, placebo-controlled, single dose, and stepwise dose-escalation in healthy adults (Korean/Chinese) between the ages of 19 and 50.
(§2) A stabilizer (200 mg), a freeze-drying auxiliary agent (200 mg), and the previously prepared fexuprazan hydrochloride (40 mg based on fexuprazan weight) were dissolved in water for injection (4 mL), and an appropriate amount of acid was added thereto to adjust the pH to 4.0. The prepared solution was put into a vial, dried by a freeze-drying method, and prepared as a freeze-drying agent.
(§3) The freeze-dried composition prepared as above was used, but a total of 28 subjects of 4, 8, 8, and 8 subjects each were enrolled for four dose groups (10 mg, 20 mg, 40 mg, and 80 mg) based on fexuprazan weight, and each group was randomly assigned to test or control groups in the order that they passed the screening criteria at a ratio of 3:1. All test subjects completed safety, pharmacokinetic, and pharmacodynamic evaluations according to the planned clinical trial schedule.
(§4) The medication was performed in the morning, and the patient was discharged from the hospital on the third day of medication. Subsequently, a close-out visit was performed between the 8th and 11th day of medication.
(§5) Testing of the acidity (pH) in the gastrointestinal tract and gastric secretion promoting hormone gastrin were performed from 24 hours before medication to 24 hours after medication. Blood collection for pharmacokinetics and urine collection for pharmacokinetics were performed for 48 hours from the time of medication.
After a single intravenous administration of four dose groups for fexuprazan, the dose proportionality of fexuprazan to the Cmax, AUClast, and AUCinf parameters was evaluated between doses of 10 mg and 80 mg. The log-transformed parameters and 95% confidence interval regression lines of each dose after a single administration are shown in Table 7 and FIG. 3, respectively. […] That is, it can be confirmed that the pK parameter of intravenous administration is proportional to the dose.
Table 8 and FIG. 4 show the results of the Kruskal Wallis test for dose-normalized Cmax (Cmax/Dose), AUClast (AUClast/Dose), and AUCinf (AUCinf/Dose) between dose groups. […] That is, it can be seen that there is no significant difference between dose groups in the proportional relationship, and the appropriate dose for intravenous administration can be calculated indirectly through the appropriate dose for oral administration.

[4] = test system: acidity (pH) in the gastrointestinal tract; test: single intravenous dose-escalation clinical trial, acidity (pH) in the gastrointestinal tract; assay type: in vivo, human; conditions: healthy adults; for Fraction time pH ≥ 4 (%) / Fraction time pH ≥ 6 (%): 24 hours after medication
Protocol: as §1, §2, §3, §4, §5

[5] = oral vs intravenous two-way crossover clinical trial, safety; assay type: in vivo, human; conditions: healthy adults, single 40 mg oral and 40 mg intravenous
Text: Therefore, in order to compare the safety/PK/PD of the compound of the present invention during single intravenous administration and during single oral administration and derive the bioavailability, the clinical trial was designed as a randomized, open-label, single-dose, two-period, two-way crossover trial in healthy adults. The selection/exclusion criteria were the same as in Experimental Example 4. A total of 8 subjects were enrolled, and four subjects each were randomly assigned to sequence group 1 or sequence group 2 in the order in which they passed the screening criteria. All test subjects completed safety, pharmacokinetic, and pharmacodynamic evaluations according to the planned clinical trial schedule.
as §5

Which results are given for `CNCc1cn(S(=O)(=O)c2cccc(F)c2)c(-c2ccc(F)cc2F)c1OC` [Fexuprazan, 1-(5-(2,4-difluorophenyl)-1-((3-fluorophenyl)sulfonyl)-4-methoxy-1H-pyrrol-3-yl)-N-methylmethanamine]?
BA ([1]; PO 2 mg/kg vs IV 1 mg/kg): 24.7%; AUC(0-t) ([1]; rat, plasma, IV 1 mg/kg): 143 ± 38 ng·h/mL; Vd ([1]; rat, plasma, IV 1 mg/kg): 20.2 ± 5.2 L/kg; clearance ([1]; rat, plasma, IV 1 mg/kg): 114 ± 29 mL/min/kg; half-life ([1]; rat, plasma, IV 1 mg/kg): 124 ± 15 min; AUC(0-t) ([1]; rat, plasma, PO 2 mg/kg): 70.9 ± 22.4 ng·h/mL; Cmax ([1]; rat, plasma, PO 2 mg/kg): 23.8 ± 10.7 ng/mL; Tmax ([1]; rat, plasma, PO 2 mg/kg): 50 ± 17.3 min; half-life ([1]; rat, plasma, PO 2 mg/kg): 104 ± 9.6 min; Result: harmless dose ([2]; Rat, 4 weeks, intravenous, doses 0, 2.5, 5, 10): harmless dose 10 mg/kg; toxic symptoms due to the test substance ([2]; rats, 2.5, 5, 10 mg/kg/day intravenous, 4 weeks): no toxic symptoms due to the test substance were observed in all administration groups; harmless dose ([2]; rats, intravenous once a day for 4 weeks): 10 mg/kg/day; AUC(0-inf) ([3]; single intravenous 10 mg): 240 ± 31.3 ng·h/mL; AUC(0-t) ([3]; single intravenous 10 mg): 235 ± 32.3 ng·h/mL; clearance ([3]; single intravenous 10 mg): 702 mL/min; half-life ([3]; single intravenous 10 mg): 542 ± 51 min; Cmax ([3]; single intravenous 10 mg (N = 3)): 93.7 ± 13.9 ng/mL; AUC(0-inf) ([3]; single intravenous 20 mg): 514 ± 113 ng·h/mL; AUC(0-t) ([3]; single intravenous 20 mg): 502 ± 111 ng·h/mL; clearance ([3]; single intravenous 20 mg): 677 mL/min; half-life ([3]; single intravenous 20 mg): 517 ± 113 min; Cmax ([3]; single intravenous 20 mg (N = 6)): 185 ± 32.3 ng/mL; AUC(0-inf) ([3]; single intravenous 40 mg): 1100 ± 238 ng·h/mL; AUC(0-t) ([3]; single intravenous 40 mg): 1070 ± 225 ng·h/mL; clearance ([3]; single intravenous 40 mg): 630 mL/min; half-life ([3]; single intravenous 40 mg): 530 ± 57.6 min; Cmax ([3]; single intravenous 40 mg (N = 6)): 321 ± 75.7 ng/mL; AUC(0-inf) ([3]; single intravenous 80 mg): 2380 ± 301 ng·h/mL; AUC(0-t) ([3]; single intravenous 80 mg): 2290 ± 271 ng·h/mL; clearance ([3]; single intravenous 80 mg): 567 mL/min; half-life ([3]; single intravenous 80 mg): 612 ± 110 min; Cmax ([3]; single intravenous 80 mg (N = 6)): 633 ± 165 ng/mL; time during which the pH maintained above 6 for 12 hours ([4]; intravenous administration of 40 mg, 12 hours): ≥ 50%; Mean pH ([4]; single intravenous 10 mg): 2.7 ± 0.1; Median pH ([4]; single intravenous 10 mg): 2.1 ± 0.2; Fraction time pH ≥ 4 (%) ([4]; single intravenous 10 mg): 20.4 ± 2.6%; Fraction time pH ≥ 6 (%) ([4]; single intravenous 10 mg): 2.9 ± 2.0%; Mean pH ([4]; single intravenous 20 mg): 3.9 ± 0.8; Median pH ([4]; single intravenous 20 mg): 3.8 ± 1.3; Fraction time pH ≥ 4 (%) ([4]; single intravenous 20 mg): 46.7% and 46.7 ± 19.0%; Fraction time pH ≥ 6 (%) ([4]; single intravenous 20 mg): 16.7 ± 14.6%; Mean pH ([4]; single intravenous 40 mg): 4.9 ± 0.3; Median pH ([4]; single intravenous 40 mg): 5.4 ± 0.6; Fraction time pH ≥ 4 (%) ([4]; single intravenous 40 mg): 71.0 ± 10.3%; Fraction time pH ≥ 6 (%) ([4]; single intravenous 40 mg): 38.3 ± 9.0%; Mean pH ([4]; single intravenous 80 mg): 5.9 ± 0.4; Median pH ([4]; single intravenous 80 mg): 6.2 ± 0.3; Fraction time pH ≥ 4 (%) ([4]; single intravenous 80 mg): 92.9 ± 4.8%; Fraction time pH ≥ 6 (%) ([4]; single intravenous 80 mg): 59.65% and 59.7 ± 15.7%; serious abnormalities or side effects [5]: no serious abnormalities or side effects were observed
